Reference: US9695155B2, “Herbicidal substituted pyrimidinyloxy benzene compounds” (E. I. DU PONT DE NEMOURS AND COMPANY, priority 2013, dated 2017)

Tests used:
wheat = assay: Test A postemergence; format: in vivo, Triticum aestivum; conditions: 0 to 100 scale, 0 no effect, 100 complete control
Outline: (§1)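 Greenhouse pot test, loam/sand soil. Formulation: non-phytotoxic solvent mix plus surfactant. Pre: directed spray onto soil after sowing. Post: plants at 1–2 leaf, 2–10 cm. Rated visually vs untreated controls at ~10 d, 0 (no effect) to 100 (complete control).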

Italian ryegrass [1] = assay: Test A postemergence; format: in vivo, Lolium multiflorum; conditions: 0 to 100 scale, 0 no effect, 100 complete control
Excerpt: (§2) Seeds of plant species selected from barnyardgrass (Echinochloa crus-galli), kochia (Kochia scoparia), ragweed (common ragweed, Ambrosia elatior), Italian ryegrass (Lolium multiflorum), large (Lg) crabgrass (Digitaria sanguinalis), giant foxtail (Setaria faberii), morningglory (Ipomoea spp.), pigweed (Amaranthus retroflexus), velvetleaf (Abutilon theophrasti), wheat (Triticum aestivum), and corn (Zea mays) were planted into a blend of loam soil and sand and treated preemergence with a directed soil spray using test chemicals formulated in a non-phytotoxic solvent mixture which included a surfactant.
(§3) At the same time, plants selected from these crop and weed species and also blackgrass (Alopecurus myosuroides), and galium (catchweed bedstraw, Galium aparine) were planted in pots containing the same blend of loam soil and sand and treated with postemergence applications of test chemicals formulated in the same manner. Plants ranged in height from 2 to 10 cm and were in the one- to two-leaf stage for the postemergence treatment. Treated plants and untreated controls were maintained in a greenhouse for approximately 10 days, after which time all treated plants were compared to untreated controls and visually evaluated for injury. Plant response ratings, summarized in Table A, are based on a 0 to 100 scale where 0 is no effect and 100 is complete control. A dash (-) response means no test result.

barnyardgrass [2] = assay: Test B flooded paddy test; format: in vivo, Echinochloa crus-galli; conditions: Flood, 250 g ai/ha; 0 to 100 scale where 0 is no effect and 100 is complete control
Outline: (§4)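 Evaluation is visual, against untreated controls, 13 to 15 days after treatment. Before treatment, plants reached the 2-leaf stage; pots were then flooded 3 cm deep, compound was added to the water, and that level was maintained. Ratings run 0 to 100, with 100 meaning complete control.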

barnyardgrass [3] = assay: Test A postemergence; format: in vivo, Echinochloa crus-galli
Outline: as §1

rice = assay: Test B flooded paddy test; format: in vivo, Oryza sativa; conditions: Flood, 250 g ai/ha; 0 to 100 scale where 0 is no effect and 100 is complete control
Outline: as §4

corn = assay: Test A postemergence; format: in vivo, Zea mays
Outline: as §1

kochia [4] = assay: Test A preemergence; format: in vivo, Kochia scoparia; conditions: for Plant response rating, Kochia: 0 to 100 scale where 0 is no effect and 100 is complete control
Excerpt: as §2, §3

giant foxtail [5] = assay: Test A preemergence; format: in vivo, Setaria faberii; conditions: for Plant response rating, Foxtail, Giant: 0 to 100 scale where 0 is no effect and 100 is complete control
Outline: as §1

ragweed [6] = assay: Test A postemergence; format: in vivo, Ambrosia elatior; conditions: 0 to 100 scale, 0 no effect, 100 complete control
Outline: as §1

barnyardgrass [7] = assay: Test A preemergence; format: in vivo, Echinochloa crus-galli; conditions: for Plant response rating, Barnyardgrass: 0 to 100 scale where 0 is no effect and 100 is complete control
Outline: as §1

blackgrass = assay: Test A postemergence; format: in vivo, Alopecurus myosuroides
Excerpt: as §2, §3

galium = assay: Test A postemergence; format: in vivo, Galium aparine
Outline: as §1

giant foxtail [8] = assay: Test A postemergence; format: in vivo, Setaria faberii
Outline: as §1

Italian ryegrass [9] = assay: Test A preemergence; format: in vivo, Lolium multiflorum; conditions: for Plant response rating, Ryegrass, Italian: 0 to 100 scale where 0 is no effect and 100 is complete control
Excerpt: as §2, §3

kochia [10] = assay: Test A postemergence; format: in vivo, Kochia scoparia
Excerpt: as §2, §3

sedge, umbrella = assay: Test B flooded paddy test; format: in vivo, Cyperus difformis; conditions: Flood, 250 g ai/ha; 0 to 100 scale where 0 is no effect and 100 is complete control
Outline: as §4

pigweed [11] = assay: Test A preemergence; format: in vivo, Amaranthus retroflexus; conditions: for Plant response rating, Pigweed: 0 to 100 scale where 0 is no effect and 100 is complete control
Outline: as §1

pigweed [12] = assay: Test A postemergence; format: in vivo, Amaranthus retroflexus; conditions: 0 to 100 scale, 0 no effect, 100 complete control
Outline: as §1

ragweed [13] = assay: Test A preemergence; format: in vivo, Ambrosia elatior; conditions: for Plant response rating, Ragweed: 0 to 100 scale where 0 is no effect and 100 is complete control
Excerpt: as §2, §3

Heteranthera limosa = assay: Test B flooded paddy test; format: in vivo; conditions: Flood, 250 g ai/ha; 0 to 100 scale where 0 is no effect and 100 is complete control
Outline: as §4

[14] = 31 g ai/ha, 0 to 100 scale, 0 no effect, 100 complete control
[15] = 125 g ai/ha, 0 to 100 scale where 0 is no effect and 100 is complete control
[16] = 125 g ai/ha, 0 to 100 scale, 0 no effect, 100 complete control
[17] = 31 g ai/ha, visual, approximately 10 days
[18] = 1000 g ai/ha, 0 to 100 scale, 0 no effect, 100 complete control
[19] = 1000 g ai/ha, 0 to 100 scale, 0 no effect, 100 complete control, approx. 10 days

CC(C)Cc1cn(-c2c(F)cccc2Oc2ncc(Cl)cn2)nn1 [Compound 107]
80: Plant response rating, Foxtail, Giant (giant foxtail [5]; 125 g ai/ha) | Plant response rating, Galium (galium; [15])
70: Plant response rating, Foxtail, Giant (giant foxtail [8]; [15]) | Plant response rating, Sedge, Umbrella (sedge, umbrella)
40: Plant response rating, Barnyardgrass (barnyardgrass [3]; [15]) | Plant response rating, Pigweed (pigweed [12]; 31 g ai/ha) | Plant response rating, Ducksalad (Heteranthera limosa)
60: Plant response rating, Barnyardgrass (barnyardgrass [7]; 125 g ai/ha)
0: Plant response rating, Ryegrass, Italian (Italian ryegrass [1]; 31 g ai/ha) | Plant response rating, Barnyardgrass (barnyardgrass [3]; [14]) | Plant response rating, Rice (rice) | Plant response rating, Corn (corn; [14]) | Kochia plant response rating (0 to 100 scale) (kochia [4]; 31 g ai/ha) | Plant response rating, Kochia (kochia [4]; 125 g ai/ha) | Ryegrass, Italian plant response rating (0 to 100 scale) (Italian ryegrass [9]; 31 g ai/ha) | Plant response rating, Ryegrass, Italian (Italian ryegrass [9]; 125 g ai/ha) | Plant response rating, Kochia (kochia [10]; [14]) | Pigweed plant response rating (0 to 100 scale) (pigweed [11]; 31 g ai/ha) | Ragweed plant response rating (0 to 100 scale) (ragweed [13]; 31 g ai/ha) | Plant response rating, Ragweed (ragweed [13]; 125 g ai/ha)
20: Plant response rating, Corn (corn; [15]) | Plant response rating, Foxtail, Giant (giant foxtail [8]; [14]) | Plant response rating, Kochia (kochia [10]; [15])
30: Plant response rating, Barnyardgrass (barnyardgrass [2]) | Foxtail, Giant plant response rating (0 to 100 scale) (giant foxtail [5]; 31 g ai/ha) | Plant response rating, Ragweed (ragweed [6]; 31 g ai/ha) | Plant response rating, Galium (galium; [14])
50: Plant response rating, Blackgrass (blackgrass; [15]) | Plant response rating, Pigweed (pigweed [11]; 125 g ai/ha)
10: Plant response rating, Wheat (wheat; 31 g ai/ha) | Barnyardgrass plant response rating (0 to 100 scale) (barnyardgrass [7]; 31 g ai/ha) | Plant response rating, Blackgrass (blackgrass; [14])

Cc1cc(C)n(-c2ccccc2Oc2ncc(Cl)cn2)n1 [Compound 264]
0: Plant response rating, Wheat (wheat; 31 g ai/ha) | Plant response rating, Wheat (wheat; 125 g ai/ha) | Plant response rating, Ryegrass, Italian (Italian ryegrass [1]; 31 g ai/ha) | Plant response rating, Ryegrass, Italian (Italian ryegrass [1]; 125 g ai/ha) | Plant response rating, Barnyardgrass (barnyardgrass [2]) | Plant response rating, Barnyardgrass (barnyardgrass [3]; [14]) | Plant response rating, Barnyardgrass (barnyardgrass [3]; [16]) | Plant response rating, Rice (rice) | Plant response rating, Corn (corn; [14]) | Plant response rating, Corn (corn; [16]) | Plant response rating, Kochia (kochia [4]; [17]) | Kochia plant response rating (0 to 100 scale) (kochia [4]; 125 g ai/ha) | Plant response rating, Foxtail, Giant (giant foxtail [5]; [17]) | Foxtail, Giant plant response rating (0 to 100 scale) (giant foxtail [5]; 125 g ai/ha) | Plant response rating, Ragweed (ragweed [6]; 31 g ai/ha) | Plant response rating, Ragweed (ragweed [6]; 125 g ai/ha) | Plant response rating, Barnyardgrass (barnyardgrass [7]; [17]) | Barnyardgrass plant response rating (0 to 100 scale, 0 is no effect, 100 is complete control) (barnyardgrass [7]; 125 g ai/ha) | Plant response rating, Blackgrass (blackgrass; [14]) | Plant response rating, Blackgrass (blackgrass; [16]) | Plant response rating, Galium (galium; [14]) | Plant response rating, Galium (galium; [16]) | Plant response rating, Foxtail, Giant (giant foxtail [8]; [14]) | Plant response rating, Foxtail, Giant (giant foxtail [8]; [16]) | Plant response rating, Ryegrass, Italian (Italian ryegrass [9]; [17]) | Ryegrass, Italian plant response rating (0 to 100 scale) (Italian ryegrass [9]; 125 g ai/ha) | Plant response rating, Kochia (kochia [10]; [14]) | Plant response rating, Kochia (kochia [10]; [16]) | Plant response rating, Sedge, Umbrella (sedge, umbrella) | Plant response rating, Pigweed (pigweed [11]; [17]) | Pigweed plant response rating (0 to 100 scale) (pigweed [11]; 125 g ai/ha) | Plant response rating, Pigweed (pigweed [12]; 31 g ai/ha) | Plant response rating, Pigweed (pigweed [12]; 125 g ai/ha) | Plant response rating, Ragweed (ragweed [13]; [17]) | Ragweed plant response rating (0 to 100 scale) (ragweed [13]; 125 g ai/ha) | Plant response rating, Ducksalad (Heteranthera limosa)

NC(=O)c1cnn(-c2ccccc2Oc2ncc(Cl)cn2)c1 [Compound 281]
70: Plant response rating, Ragweed (ragweed [6]; 1000 g ai/ha) | Plant response rating, Kochia (kochia [10]; [18]) | Plant response rating, Pigweed (pigweed [12]; 1000 g ai/ha)
60: Plant response rating, Galium (galium; [18]) | Pigweed plant response rating (pigweed [11]; [19])
0: Plant response rating, Wheat (wheat; 1000 g ai/ha) | Plant response rating, Ryegrass, Italian (Italian ryegrass [1]; 1000 g ai/ha) | Plant response rating, Barnyardgrass (barnyardgrass [3]; [18]) | Kochia plant response rating (kochia [4]; [19]) | Foxtail, Giant plant response rating (giant foxtail [5]; [19]) | Barnyardgrass plant response rating (barnyardgrass [7]; [19]) | Plant response rating, Blackgrass (blackgrass; [18]) | Plant response rating, Foxtail, Giant (giant foxtail [8]; [18])
30: Ragweed plant response rating (ragweed [13]; [19])
10: Plant response rating, Corn (corn; [18]) | Ryegrass, Italian plant response rating (Italian ryegrass [9]; [19])
